Results as given in patent US20220194938A1, “NOVEL COMPOUNDS AND PHARMACEUTICAL COMPOSITIONS THEREOF FOR THE TREATMENT OF INFLAMMATORY DISORDERS” (GALAPAGOS NV, priority 2019, published 2022).
Like-named read-outs stand apart in the source and are kept apart here.

Columns and labels:
[1] = tested on: pooled cryopreserved hepatocytes; experiment: Metabolic stability in hepatocytes (mouse); format: in vitro ADME; settings: 1 μM test compound
Method in brief: (§1)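 Test compound at 1 μM (0.03% DMSO) incubated with 0.5 million viable pooled cryopreserved hepatocytes/mL at 37° C with shaking; sampled 0–180 min. Parent loss measured by LC-MS/MS versus time-zero, and intrinsic clearance derived from percentage-remaining plots, scaled to L/h/kg and corrected for hepatocyte binding.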

[2] = tested on: pooled cryopreserved hepatocytes; experiment: Metabolic stability in hepatocytes (human); format: in vitro ADME; settings: 1 μM test compound
Method in brief: as §1

[3] = tested on: CL097 triggered IFNα and TNFα release in human whole blood; experiment: Ex vivo human IFNα and TNFα release inhibition (whole blood assay, CL097 triggered); format: cell-based; settings: CL097 2 μg/mL, 3 h 30 min
Text: 4.10.1. Ex Vivo Human IFNα and TNFα Release Inhibition (Whole Blood Assay)
The aim of the assay is to evaluate the activity of compounds of the invention on the activated TLR/IRAK-4 pathway in an ex vivo human whole blood setting. Toll-like receptors (TLRs) are pattern recognition receptors that recognize a wide variety of microbial molecules, called pathogen-associated molecular patterns (PAMPs). Human TLR7 and TLR8 recognize imidazoquinoline compounds (e.g., CL097—CAS n #1026249-18-2) and single stranded RNAs as their natural ligands. Activation of TLRs leads to the production of several cytokines (e.g., IFNα, TNFα, IL-8, IL-6) by the TLR agonist-treated cells, whereas IRAK4 leads to the production of IFNα. Cytokine release is used as readout in this assay and represents a measure for the level of inhibition of the TLR/IRAK-4 pathway by the tested compound. It should be noted that in the context of the complete organism, other sources for these cytokines exist that are not dependent on the TLR/IRAK-4 pathway, such as e.g., macrophages (upon activation of the Fcγ receptor (Yan et al. 2012)) or T cells (upon activation of the T cell receptor (Brehm, Daniels, and Welsh 2005)).
4.10.1.1. Experimental Design
Blood was collected from healthy volunteers into lithium heparin tubes by venipuncture, then gently inverted several times to prevent clotting and incubated for at least 15 min at 37° C. on a rocking mixer shaker. Then, 100 μL of blood was dispensed into polypropylene 96-well microplate and pre-incubated in duplicate with 0.3% DMSO or test compound at different concentrations (from 30 to 0.01 μM, 3-fold dilutions to get 0.3% DMSO at the final) for 15 min at 37° C. After this pre-incubation, blood was triggered with CL097 (2 μg/mL from 1 mg/mL solution in water; InvivoGen, tlr1-c97) for 3 h 30 min at 37° C. Microtubes were centrifuged at 5000×g for 10 min at 4° C. and approximately 40 μL of plasma were collected into a polystyrene 96-well plate. Plasma could be analyzed freshly, within 30 min after triggering, or frozen at −80° C. Finally, the quantification of TNFα and IFNα were performed in the plasma using AlphaLISA Kit for […] according to the manufacturer's instructions and read on the Ensight (PerkinElmer).
A standard curve was created by plotting on log-log the mean absorbance on the y-axis against the concentration on the x-axis and a 4 PL was made through the points. For each blood sample, the IFNα concentrations of the samples were determined from the fit.
Data were then expressed as a percentage of inhibition (PIN) for each replicate using the formula:
With mean IFNα with CL097=mean IFNα concentration of replicate samples triggered with CL097; IFNαsample1=IFNα concentration of sample 1; mean IFNα with vehicle=mean IFNα concentration of replicate samples treated with vehicle.
For each blood sample, the TNFα concentrations of the samples were determined from the fit. Data were then expressed as a percentage of inhibition (PIN) for each replicate using the formula:
With mean TNFα with CL097=mean TNFα concentration of replicate samples triggered with CL097; TNFαsample1=TNFα concentration of sample 1; mean TNFα with vehicle=mean TNFα concentration of replicate samples treated with vehicle.
Curve fitting for pIC50 determination were generated using mean PIN±sem. Graphs and pIC50 calculations were derived using Prism 5.03 software (GraphPad).

SMILES	Mouse (Perc. remaining at 90 min) [1] [%]	Human (Perc. remaining at 90 min) [2] [%]	IC50 ([3]; read-out: IFNα IC50) [nM]	IC50 ([3]; read-out: TNFα IC50) [nM]
CC(C)(O)CCc1cn2cc(NC(=O)c3cccc(C(F)(F)F)n3)c(C(N)=O)cc2n1 [Compound 31, 2-(3-hydroxy-3-methyl-butyl)-6-[[6-(trifluoromethyl)pyridine-2-carbonyl]amino]imidazo[1,2-a]pyridine-7-carboxamide]	96.5	94.9	0.1 to 500	0.1 to 500
COCCc1cn2cc(NC(=O)c3cccc(C(F)(F)F)n3)c(OC)cc2n1 [Compound 35, N-[7-methoxy-2-(2-methoxyethyl)imidazo[1,2-a]pyridin-6-yl]-6-(trifluoromethyl)pyridine-2-carboxamide]	25.85	64.9	> 5000	> 5000
CCOc1c(NC(=O)c2cccn(C3CC3)c2=O)cn2cc(CCC(C)(C)O)nc2c1F [Compound 37, 1-cyclopropyl-N-[7-ethoxy-8-fluoro-2-(3-hydroxy-3-methyl-butyl)imidazo[1,2-a]pyridin-6-yl]-2-oxo-pyridine-3-carboxamide]	103.5	99.7	–	1000 to 5000
COc1c(NC(=O)c2cccn(C3CC3)c2=O)cn2cc(CCC(C)(C)O)nc2c1F [Compound 42, 1-cyclopropyl-N-[8-fluoro-2-(3-hydroxy-3-methyl-butyl)-7-methoxy-imidazo[1,2-a]pyridin-6-yl]-2-oxo-pyridine-3-carboxamide]	91.45	96.75	500 to 1000	0.1 to 500
CC(C)(O)CCc1cn2cc(NC(=O)c3cccc(C(F)(F)F)n3)c(C(=O)NCC(F)F)cc2n1 [Compound 48, N-(2,2-difluoroethyl)-2-(3-hydroxy-3-methylbutyl)-6-(6-(trifluoromethyl)picolinamido)imidazo[1,2-a]pyridine-7-carboxamide]	86	100.95	1000 to 5000	1000 to 5000
